# Where “and” joins values, the source holds several entries; their conditions need not be identical. Equal entries are not always repeated.
# Columns and labels:
# [1] = Morphological assessment / tolerability (H&E of kidney, pancreas, tumor)
# Experimental: Selected mouse organs (kidney, pancreas and tumor) were dissected from the sacrificed animals and immediately frozen using liquid nitrogen. Frozen tissue samples were sectioned of 7 μm thickness using a cryostat maintained at – 20 °C to – 25 °C and mounted onto microscope glass slides followed by staining with hematoxylin and eosin for microscopic examination using standard protocols (details in Supporting Information).
# Frozen tissue samples (kidney, pancreas and tumor) were sectioned at 7 µm thickness using a cryostat
# maintained at −20°C to −25°C and mounted onto microscope glass slides. Sections were air-dried at
# room temperature for 15 minutes and subsequently fixed in 4% paraformaldehyde for 10 minutes. After
# rinsing in phosphate-buffered saline, slides were stained with hematoxylin for 5 minutes, rinsed in
# running tap water and differentiated in 1% acid alcohol followed by bluing in ammonia water. Sections
# were then counterstained with eosin for 1 minute and briefly washed in 70% ethanol to remove excess
# stain. Slides were dehydrated through graded ethanol (70%, 95%, 100%) and mounted with a permanent
# mounting medium. Stained sections were examined using a light microscope.
# [2] = tested on: PC-3 tumors; experiment: In vivo combination therapy with everolimus in PC-3 tumor bearing mice; design: species or system mouse; details: for Tumor volume, average: 5mg/kg (x3)
# From the text: Treatment began once tumors reached the same size threshold used in the monotherapy studies. Animals were divided into three groups (n = 4–5 per group) and received one of the following regimens: • 1.
# Monitoring procedures matched those used in the monotherapy experiments.
# The procedure is detailed in the supplementary material.
# initiation of therapy in the combination treatment studies. Three groups of 5 mice per group were
# Both monotherapy and combination
structure (smiles),measurement,setting,value
"CO[C@H]1C[C@@H]2CC[C@@H](C)[C@@](O)(O2)C(=O)C(=O)N2CCCC[C@H]2C(=O)O[C@H]([C@H](C)C[C@@H]2CC[C@@H](OCCO)[C@H](OC)C2)CC(=O)[C@H](C)/C=C(\C)[C@@H](O)[C@@H](OC)C(=O)[C@H](C)C[C@H](C)/C=C/C=C/C=C/1C [Everolimus, everolimus]","Pancreas, microscopic tissue examination",[1]; 5mg/kg (x3),No obvious lesions
same,tolerability,"[1]; three doses, physical condition and weight",no observable side effects
same,Median survival,[2]; 5 mg/kg/day for 3 days i.p.,27.5 days and ~27 days
same,"Tumor volume, average",[2]; day 0,100.06 mm3
same,"Tumor volume, average",[2]; day 2,108.59 mm3
same,"Tumor volume, average",[2]; day 4,107.95 mm3
same,"Tumor volume, average",[2]; day 6,97.61 mm3
same,"Tumor volume, average",[2]; day 8,97.18 mm3
same,"Tumor volume, average",[2]; day 10,104.48 mm3
same,"Tumor volume, average",[2]; day 12,131.10 mm3
same,"Tumor volume, average",[2]; day 14,181.07 mm3
same,"Tumor volume, average",[2]; day 16,193.30 mm3
same,"Tumor volume, average",[2]; day 18,241.75 mm3
same,"Tumor volume, average",[2]; day 20,376.61 mm3
same,"Tumor volume, average",[2]; day 22,630.33 mm3
same,"Tumor volume, average",[2]; day 24,524.51 mm3
same,"Tumor volume, average",[2]; day 27,794.32 mm3
same,"Tumor volume, average",[2]; day 29,970.40 mm3
same,effect on tumor growth,"[2]; everolimus alone, 5 mg/kg/day for 3 days",moderately delayed tumor growth but did not stop it

# From publication PMC12797171, “Preclinical Evaluation of a ^177Lu-Labeled Gastrin-Releasing Peptide Receptor Antagonist and Prostate Cancer Treatment with Monotherapy and in Combination with Everolimus” (ACS Pharmacology & Translational Science, 2025)
